Common to all, as to test: microbe, parasite or virus in culture
Common to all, as to type: cell-based

The test system of assay [1] is M. tuberculosis Pyr-R ATCC 35828. Particulars: Mycobacterium tuberculosis, ATCC35828.
Assay [2] deals with M. tuberculosis INH-R ATCC35822. Particulars: Mycobacterium tuberculosis.
For assay [3], the system named is M. tuberculosis Strepto-R ATCC 35820. Particulars: Mycobacterium tuberculosis, ATCC35820.
For assay [4], the system named is M. tuberculosis Rifa-R ATCC 35838. Particulars: Mycobacterium tuberculosis, ATCC35838.

Values joined by “and” are separate entries in the source; they are usually repeats but may differ in a detail not shown here. Equal values may be shown once.

Regarding `Cc1ccc(C=NNC(=O)c2nnc(-c3ccccc3)o2)cc1` (mixture of isomers) [1j, (E/Z)-N’-(4-methylbenzyliden)-5-phenyl-1,3,4-oxadiazol-2-carbohydrazide], the MIC in assay [1] is 16 µg/mL and 52.2 µM; in assay [2] it was more than 64 µg/mL; in assay [3], more than 64 µg/mL; in assay [4], more than 64 µg/mL.
With `O=C(N/N=C\c1ccccc1)c1nnc(-c2ccncc2)o1` [1a, (Z)-N’-benzyliden-5-(pyridin-4-yl)-1,3,4-oxadiazol-2-carbohydrazide], the MIC in assay [1], in assay [2], in assay [3] and in assay [4] was more than 64 µg/mL throughout.
Take `O=C(N/N=C\c1ccc(Cl)cc1)c1nnc(-c2ccncc2)o1` [1b, (Z)-N’-(4-chlorobenzyliden)-5-(pyridin-4-yl)-1,3,4-oxadiazol-2-carbohydrazide]: the MIC in assay [1], in assay [2], in assay [3] and in assay [4] was more than 64 µg/mL each time.
As for `Cc1ccc(/C=N\NC(=O)c2nnc(-c3ccncc3)o2)cc1` [1c, (Z)-N’-(4-methylbenzyliden)-5-(pyridin-4-yl)-1,3,4-oxadiazol-2-carbohydrazide], the MIC in assay [1], in assay [2], in assay [3] and in assay [4] was more than 64 µg/mL each time.
Take `O=C(N/N=C\c1ccc[nH]1)c1nnc(-c2ccncc2)o1` [1d, (Z)-N’-((1H-pyrrol-2-yl)methylen)-5-(pyridin-4-yl)-1,3,4-oxadiazol-2-carbohydrazide]: the MIC in assay [1], in assay [2], in assay [3] and in assay [4] was more than 64 µg/mL throughout.
For the compound `O=C(N/N=C\c1ccccn1)c1nnc(-c2ccncc2)o1` [1e, (Z)-N’-(pyridin-2-ylmethylen)-5-(pyridin-4-yl)-1,3,4-oxadiazol-2-carbohydrazide], the MIC in assay [1] was 4 µg/mL and 13.6 µM; in assay [2] it was more than 64 µg/mL; in assay [3] it was 32 µg/mL and 108 µM; in assay [4] it was 32 µg/mL and 108 µM.
With `O=C(N/N=C\c1ccncc1)c1nnc(-c2ccncc2)o1` [1f, (Z)-5-(pyridin-4-yl)-N’-(pyridin-4-ylmethylen)-1,3,4-oxadiazol-2-carbohydrazide], the MIC in assay [1], in assay [2], in assay [3] and in assay [4] was more than 64 µg/mL each time.
Regarding `O=C(N/N=C\c1ccco1)c1nnc(-c2ccncc2)o1` [1g, (Z)-N’-(furan-2-ylmethylen)-5-(pyridin-4-yl)-1,3,4-oxadiazol-2-carbohydrazide], the MIC in assay [1], in assay [2], in assay [3] and in assay [4] was more than 64 µg/mL each time.
In the case of `O=C(N/N=C\c1ccccc1)c1nnc(-c2ccccc2)o1` [1h, (Z)-N’-benzyliden-5-phenyl-1,3,4-oxadiazol-2-carbohydrazide], the MIC in assay [1] is 64 µg/mL and 196 µM; in assay [2] it was more than 64 µg/mL; in assay [3], more than 64 µg/mL; in assay [4], more than 64 µg/mL.
As to `O=C(N/N=C\c1ccc(Cl)cc1)c1nnc(-c2ccccc2)o1` [1i, (Z)-N’-(4-chlorobenzyliden)-5-phenyl-1,3,4-oxadiazol-2-carbohydrazide], the MIC in assay [1] is 32 µg/mL and 97.8 µM; in assay [2], more than 64 µg/mL; in assay [3] it was more than 64 µg/mL; in assay [4], more than 64 µg/mL.
Regarding `O=C(N/N=C\c1ccc[nH]1)c1nnc(-c2ccccc2)o1` [1k, (Z)-N’-((1H-pyrrol-2-yl)methylen)-5-phenyl-1,3,4-oxadiazol-2-carbohydrazide], the MIC in assay [1] is 4 µg/mL and 14.1 µM; in assay [2], more than 64 µg/mL; in assay [3], more than 64 µg/mL; in assay [4], more than 64 µg/mL.
Consider `O=C(N/N=C\c1ccccn1)c1nnc(-c2ccccc2)o1` [1l, (Z)-5-phenyl-N’-(pyridin-2-ylmethylen)-1,3,4-oxadiazol-2-carbohydrazide], for which the MIC in assay [1] is 4 µg/mL and 13.6 µM; in assay [2], more than 64 µg/mL; in assay [3] it was 64 µg/mL and 109 µM; in assay [4], 32 µg/mL and 54.4 µM.
Consider `O=C(N/N=C\c1ccncc1)c1nnc(-c2ccccc2)o1` [1m, (Z)-5-phenyl-N’-(pyridin-4-ylmethylen)-1,3,4-oxadiazol-2-carbohydrazide], for which the MIC in assay [1] is 16 µg/mL and 54.8 µM; in assay [2], more than 64 µg/mL; in assay [3] it was more than 64 µg/mL; in assay [4] it was more than 64 µg/mL.
As to `O=C(N/N=C\c1ccco1)c1nnc(-c2ccccc2)o1` [1n, (Z)-N’-(furan-2-ylmethylen)-5-phenyl-1,3,4-oxadiazol-2-carbohydrazide], the MIC in assay [1] is 16 µg/mL and 56.6 µM; in assay [2], more than 64 µg/mL; in assay [3] it was 32 µg/mL and 103 µM; in assay [4], 32 µg/mL and 103 µM.
Turning to `NNC(=O)c1ccncc1` [INH, Isoniazid, reference compound], the MIC in assay [1] was 0.25 µg/mL and 1.8 µM; in assay [2], more than 64 µg/mL; in assay [3] it was 0.25 µg/mL and 1.8 µM; in assay [4] it was 0.25 µg/mL and 1.8 µM.
As to `CO[C@H]1/C=C/O[C@@]2(C)Oc3c(C)c(O)c4c(O)c(c(/C=N/N5CCN(C)CC5)c(O)c4c3C2=O)NC(=O)/C(C)=C\C=C\[C@H](C)[C@H](O)[C@@H](C)[C@@H](O)[C@@H](C)[C@H](OC(C)=O)[C@@H]1C` [RIF, reference compound], the MIC was 0.25 µg/mL and 0.3 µM in assay [1]; 0.25 µg/mL and 0.3 µM in assay [2]; 0.25 µg/mL and 0.3 µM in assay [3]; more than 64 µg/mL in assay [4].

The record behind these values is article PMC9735621, “Synthesis, Biological Evaluation and Computational Studies of New Hydrazide Derivatives Containing 1,3,4-Oxadiazole as Antitubercular Agents” (International Journal of Molecular Sciences, 2022).
